# Literature values in PubChem BioAssay AID1259409 (Chemical Carcinogenesis Research Information System (CCRIS), 2018).
# System: rodent chemically induced tumor inhibition, incidence and multiplicity
# Assay: CCRIS tumor inhibitor studies
# Conditions: Promoter: NONE USED
structure (smiles),measurement,setting,value
O=c1oc2c(O)c(O)cc3c(=O)oc4c(O)c(O)cc1c4c23,"tumour outcome (control, treated, inhibition, significance)","Carcinogen: 2-AMINO-1-METHYL-6-PHENYL-1H-IMIDAZO[4,5-B]PYRID INE, 105650-23-5, Dose [Inhibitor]: 0, 0.1% IN THE DIET FOR 52 WK (STUDY DURATION: 52 WK), Route [Inhibitor]: ORAL, Species: RAT, Strain/Sex: F344/FEMALE, Target Tissue: Type of Lesion: MAMMARY GLAND: ADENOCARCINOMA, Dose [Carcinogen]: 0.02% IN THE DIET FOR 52 WK","8/20 (40%), 5/19 (26%), 35%, not significant"
same,"tumour outcome (control, treated, inhibition, significance)","Carcinogen: 2-AMINO-1-METHYL-6-PHENYL-1H-IMIDAZO[4,5-B]PYRID INE, 105650-23-5, Dose [Inhibitor]: 0, 0.1% IN THE DIET FOR 52 WK (STUDY DURATION: 52 WK), Route [Inhibitor]: ORAL, Species: RAT, Strain/Sex: F344/FEMALE, Target Tissue: Type of Lesion: MAMMARY GLAND: FIBROADENOMA, Dose [Carcinogen]: 0.02% IN THE DIET FOR 52 WK","2/20 (10%), 0/19 (0%), 100%, not significant"
same,"tumour outcome (control, treated, inhibition, significance)","Carcinogen: 2-AMINO-1-METHYL-6-PHENYLIMIDAZO[4,5-B]PYRIDINE, 105650-23-5, Dose [Inhibitor]: 0, 0.1% IN DIET FOR 52 WK CONCURRENTLY WITH CARCINOGEN TREATMENT (STUDY DURATION: 52 WK), Route [Inhibitor]: ORAL, Species: RAT, Strain/Sex: F344/FEMALE, Target Tissue: Type of Lesion: LARGE INTESTINE: ADENOMA OR CARCINOMA, Dose [Carcinogen]: 0.02% IN DIET FOR 52 WK","2/18 (11%), 3/18 (17%), -55%, not significant"
same,"tumour outcome (control, treated, inhibition, significance)","Carcinogen: 2-AMINO-1-METHYL-6-PHENYLIMIDAZO[4,5-B]PYRIDINE, 105650-23-5, Dose [Inhibitor]: 0, 0.1% IN DIET FOR 52 WK CONCURRENTLY WITH CARCINOGEN TREATMENT (STUDY DURATION: 52 WK), Route [Inhibitor]: ORAL, Species: RAT, Strain/Sex: F344/FEMALE, Target Tissue: Type of Lesion: MAMMARY GLAND: ADENOCARCINOMA, Dose [Carcinogen]: 0.02% IN DIET FOR 52 WK","8/20 (40%), 5/19 (26%), 35%, not significant"
same,"tumour outcome (control, treated, inhibition, significance)","Carcinogen: 3-METHYLCHOLANTHRENE, 56-49-5, Dose [Inhibitor]: 1 UMOL 2/WK FOR 16 WK APPLIED 1 HR PRIOR TO EACH CARCINOGEN TREATMENT (STUDY DURATION: 16 WK), Route [Inhibitor]: DERMAL, Species: MOUSE, Strain/Sex: BALB/FEMALE, Target Tissue: Type of Lesion: SKIN: TUMOR, Dose [Carcinogen]: 1.5 UMOL 2/WK FOR 16 WK","100%, 50%, 50%, not calculated"
same,"tumour outcome (control, treated, inhibition, significance)","Carcinogen: 3-METHYLCHOLANTHRENE, 56-49-5, Dose [Inhibitor]: 1.0 UMOL APPLIED 1 HR PRIOR TO EACH CARCINOGEN DOSE 2/WK FOR 16 WK (STUDY DURATION: 16 WK), Route [Inhibitor]: DERMAL, Species: MOUSE, Strain/Sex: BALB/FEMALE, Target Tissue: Type of Lesion: SKIN: TUMOR, Dose [Carcinogen]: 1.5 UMOL 2/WK FOR 16 WK","100%, 50%, 50%, not calculated"
same,"tumour outcome (control, treated, inhibition, significance)","Carcinogen: 3-METHYLCHOLANTHRENE, 56-49-5, Dose [Inhibitor]: 2 UMOL 2/WK FOR 16 WK APPLIED 1 HR PRIOR TO EACH CARCINOGEN TREATMENT (STUDY DURATION: 16 WK), Route [Inhibitor]: DERMAL, Species: MOUSE, Strain/Sex: BALB/FEMALE, Target Tissue: Type of Lesion: SKIN: TUMOR, Dose [Carcinogen]: 1.5 UMOL 2/WK FOR 16 WK","100%, 40%, 60%, not calculated"
same,"tumour outcome (control, treated, inhibition, significance)","Carcinogen: 3-METHYLCHOLANTHRENE, 56-49-5, Dose [Inhibitor]: 2 UMOL APPLIED 1 HR PRIOR TO EACH CARCINOGEN DOSE 2/WK FOR 16 WK (STUDY DURATION : 16 WK), Route [Inhibitor]: DERMAL, Species: MOUSE, Strain/Sex: BALB/FEMALE, Target Tissue: Type of Lesion: SKIN: TUMOR, Dose [Carcinogen]: 1.5 UMOL 2/WK FOR 16 WK","100%, 40%, 60%, not calculated"
same,"tumour outcome (control, treated, inhibition, significance)","Carcinogen: 4-(METHYLNITROSAMINO)-1-(3-PYRIDYL)-1-BUTANONE, 64091-91-4, Dose [Inhibitor]: 0, 4 G/KG DIET 2 WK PRIOR TO CARCINOGEN TREATMENT AND CONTINUING FOR STUDY DURATION (STUDY DURATION: 26 MO), Route [Inhibitor]: ORAL, Species: MOUSE, Strain/Sex: STRAIN-A/FEMALE, Target Tissue: Type of Lesion: LUNG: ADENOMA, Dose [Carcinogen]: TOTAL DOSE 9.2 MG/MOUSE ADMINISTERED IN DRINKING WATER","100%, 96%, 4%, not calculated"
same,"tumour outcome (control, treated, inhibition, significance)","Carcinogen: 4-(METHYLNITROSAMINO)-1-(PYRIDYL)-1-BUTANONE, 64091-91-4, Dose [Inhibitor]: 0, 4 G/KG DIET (37 UMOL/D) BEGINNING 2 WK PRIOR TO CARCINOGEN DOSE AND CONTINUING FOR DURATION OF STUDY (STUDY DURATION:, Route [Inhibitor]: ORAL, Species: MOUSE, Strain/Sex: STRAIN-A/FEMALE, Target Tissue: Type of Lesion: LUNG: ADENOMA, Dose [Carcinogen]: 9.2, 9.4 MG/MOUSE IN DRINKING WATER DURING 7 WK","28/28 (100%), 24/25 (96%), 4%, not significant"
same,"tumour outcome (control, treated, inhibition, significance)","Carcinogen: 4-(METHYLNITROSOAMINO-1-(PYRIDYL)-1-BUTANONE, 64091-91-4, Dose [Inhibitor]: 0, 4 G/KG DIET BEGINNING 1 D POST CARCINOGEN DOSE AND CONTINUING FOR 16 WK (STUDY DURATION: 16 WK), Route [Inhibitor]: ORAL, Species: MOUSE, Strain/Sex: STRAIN-A/FEMALE, Target Tissue: Type of Lesion: LUNG: ADENOMA, Dose [Carcinogen]: 2 MG IN 0.2 ML OF O.9% NACL ONCE","100%, 100%, 0%, not significant"
